Reference: US20240101576A1, “HETEROCYCLIC INHIBITORS OF EGFR AND/OR HER2, FOR USE IN THE TREATMENT OF CANCER” (Scorpion Therapeutics, Inc., priority 2020, published 2024)

Assays:
Assay type in all cases: cell-based
[1] = biological target: T1, EGFR exon 20 FQEA Ins A763_V764 (Ba/F3 cells) (Homo sapiens, UniProt P00533, INS763FQEA); test: Inhibitor activity on EGFR-dependent cell growth (CellTiter-Glo, 72 h), Ba/F3 EGFR exon 20 FQEA Ins; settings: read-out: BaF3 FQEA IC50
T1 construct: expressed in transfected cells; host or cells: Ba/F3 (murine pro-B cells), retroviral transduction, puromycin selection, IL3-independent pool
Procedure, shortened: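 Mutant EGFR drives IL3-independent growth of engineered Ba/F3 pools. L858R cells go in at 400/well, L858R/C797S at 600, and exon 19del or FQEA insertion at 800. After 72 h with compound, plates are equilibrated 15 min at RT. Reagent is added 1:1, followed by 30 min and a luminescence read.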

EGFR WT (Ba/F3 cells) = biological target: T2, EGFR WT (Ba/F3 cells) (Homo sapiens, UniProt P00533); test: Inhibitor activity on EGFR-dependent cell growth (CellTiter-Glo, 72 h), Ba/F3 EGFR WT; settings: read-out: BaF3 WT IC50
T2 construct: expressed in transfected cells; host or cells: Ba/F3 (murine pro-B cells), retroviral transduction, puromycin selection, maintained with EGF
Procedure, shortened: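 This growth assay used Ba/F3 cells that depend on wild-type EGFR and are kept in EGF without IL3. Compounds were made up as 10 mM DMSO stocks and diluted 3-fold over 10 points. 120 nL went onto 600 cells/well. After 72 hours, 40 μL CellTiter-Glo was added and luminescence read on EnVision after 30 min.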

[2] = biological target: T3, EGFR exon 20 SVD Ins D770_N771 (Ba/F3 cells) (Homo sapiens, UniProt P00533, INS770SVD); test: Inhibitor activity on EGFR-dependent cell growth (CellTiter-Glo, 72 h), Ba/F3 EGFR exon 20 SVD Ins; settings: read-out: BaF3 SVD IC50
T3 construct: expressed in transfected cells; host or cells: Ba/F3 (murine pro-B cells), retroviral transduction, puromycin selection, IL3-independent pool
Procedure, shortened: (§1)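 IC50s derive from a sigmoidal dose–response fit of CellTiter-Glo signal. The signal was normalised between […]-treated cells and cell-free medium. Ba/F3 mutant-EGFR cells, seeded at 400–800/well depending on the line, had 72 h of exposure to a 10-point, 3-fold compound series.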

[3] = biological target: T4, EGFR exon 20 ASV Ins V769_D770 (Ba/F3 cells) (Homo sapiens, UniProt P00533, INS769ASV); test: Inhibitor activity on EGFR phosphorylation (pEGFR AlphaLISA, 2 h), Ba/F3 EGFR exon 20 ASV Ins; settings: EGFR phosphorylation, AlphaLISA, 2 hours; read-out: ASV IC50 (pEGFR)
T4 construct: expressed in transfected cells; host or cells: Ba/F3 (murine pro-B cells), retroviral transduction, puromycin selection, IL3-independent pool
Description: Example B. Inhibitor Activity on EGFR phosphorylation (pEGFR)
EGFR mutant Ba/F3 cells were generated by transduction with retrovirus containing vectors expressing EGFR L858R, EGFR exon 19del, EGFR L858R/C797S, EGFR exon 20 NPG Ins D770_N771, EGFR exon 20 ASV Ins V769_D770, or EGFR exon 20 SVD Ins D770_N771 genes along with a puromycin selection marker. Transduced cells are selected with puromycin for 7 days and are then be transferred into culture media without Interleukin 3 (IL3). Surviving cells are confirmed to express EGFR by Western blot and maintained as a pool. CUTO14 cells were obtained from Dr. Robert C. Doebele at the University of Colorado. The IC50 date are included in Table 6 and Table 7.
1.1 Cells are harvested from flask into cell culture medium and the cell number counted.
1.2 Cells are diluted with culture medium to the desired density and 40 μL of cell suspension is added into each well of 384-well cell culture plate and the seeding density is 50K cells/well (Ba/F3) or 12.5K cells/well (CUTO14).
2 Compound Preparation and Treatment
2.1 Test compounds are dissolved to 10 mM in a DMSO stock solution. 45 μL of stock solution is transferred to a 384 polypropylene plate (pp-plate). Perform 3-fold, 10-point dilution via transferring 15 μL compound into 30 μL DMSO using a TECAN (EVO200) liquid handler.
2.2 Spin plates at room temperature at 1,000 RPM for 1 minute.
2.3 Transfer 5 nL of diluted compound from compound source plate into the cell plate.
2.4 After compound treatment for 2 hours, perform pEGFR detection by AlphaLISA for compound treatment plates as described in “Detection” section.
3 Detection by pEGFR AlphaLISA (Perkin-Elmer)
3.1 Plates are removed from incubators and equilibrated at room temperature for 10 minutes, and media was removed
3.2 10 μL of lysis buffer is added and plates shaken at 600 rpm for 1 hr.
3.3 Prepare acceptor mix just before use and dispense 5 μL of acceptor mix to all the wells. Shake 350 rpm for Ihr in the dark
3.4 Prepare donor mix under low light conditions prior to use. Dispense 5 μL of donor mix to all the wells. Mix well on the shaker, seal and wrap in aluminum foil and incubate 1.5 hrs at room temperature in the dark
3.5 Transfer 18.5 μL mixture to OptiPlate 384, and read using an Envision. The IC50 date were included in Table 6 and Table 7.

[4] = biological target: T4, EGFR exon 20 ASV Ins V769_D770 (Ba/F3 cells); test: Inhibitor activity on EGFR-dependent cell growth (CellTiter-Glo, 72 h), Ba/F3 EGFR exon 20 ASV Ins; settings: read-out: BaF3 ASV IC50
Procedure, shortened: as §1

T4 sequence (P00533 with tags, fused parts or gaps INS769ASV): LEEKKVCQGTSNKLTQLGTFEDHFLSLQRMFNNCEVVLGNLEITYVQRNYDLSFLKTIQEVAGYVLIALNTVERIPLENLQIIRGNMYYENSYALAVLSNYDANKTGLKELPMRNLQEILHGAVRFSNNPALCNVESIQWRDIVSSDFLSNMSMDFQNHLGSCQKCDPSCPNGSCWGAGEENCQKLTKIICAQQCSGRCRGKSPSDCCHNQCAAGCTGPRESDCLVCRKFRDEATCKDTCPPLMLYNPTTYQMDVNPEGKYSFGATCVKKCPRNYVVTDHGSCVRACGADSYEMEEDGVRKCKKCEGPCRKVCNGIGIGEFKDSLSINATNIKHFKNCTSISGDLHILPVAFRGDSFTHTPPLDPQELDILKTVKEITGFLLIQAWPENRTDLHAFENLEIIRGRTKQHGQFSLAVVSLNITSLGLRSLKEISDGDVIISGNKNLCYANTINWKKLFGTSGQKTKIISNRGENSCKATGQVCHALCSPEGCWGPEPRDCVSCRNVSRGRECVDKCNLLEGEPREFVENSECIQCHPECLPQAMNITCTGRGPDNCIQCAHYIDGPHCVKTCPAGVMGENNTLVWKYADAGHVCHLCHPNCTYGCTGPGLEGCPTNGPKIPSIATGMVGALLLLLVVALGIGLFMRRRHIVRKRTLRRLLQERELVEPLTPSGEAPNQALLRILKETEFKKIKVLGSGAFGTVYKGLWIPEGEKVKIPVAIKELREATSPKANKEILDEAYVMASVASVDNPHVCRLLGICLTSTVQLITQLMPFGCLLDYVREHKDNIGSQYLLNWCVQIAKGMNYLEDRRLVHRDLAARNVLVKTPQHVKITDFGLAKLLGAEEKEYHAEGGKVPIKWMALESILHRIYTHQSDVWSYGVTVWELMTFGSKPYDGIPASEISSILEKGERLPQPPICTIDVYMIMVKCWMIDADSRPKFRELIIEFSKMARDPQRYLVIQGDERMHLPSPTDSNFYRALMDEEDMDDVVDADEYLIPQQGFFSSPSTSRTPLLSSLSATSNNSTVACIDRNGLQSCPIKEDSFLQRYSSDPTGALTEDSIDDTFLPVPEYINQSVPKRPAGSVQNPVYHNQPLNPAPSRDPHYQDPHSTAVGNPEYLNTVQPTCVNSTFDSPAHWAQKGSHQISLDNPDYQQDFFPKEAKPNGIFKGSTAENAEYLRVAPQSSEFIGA
T1 sequence (P00533 with tags, fused parts or gaps INS763FQEA): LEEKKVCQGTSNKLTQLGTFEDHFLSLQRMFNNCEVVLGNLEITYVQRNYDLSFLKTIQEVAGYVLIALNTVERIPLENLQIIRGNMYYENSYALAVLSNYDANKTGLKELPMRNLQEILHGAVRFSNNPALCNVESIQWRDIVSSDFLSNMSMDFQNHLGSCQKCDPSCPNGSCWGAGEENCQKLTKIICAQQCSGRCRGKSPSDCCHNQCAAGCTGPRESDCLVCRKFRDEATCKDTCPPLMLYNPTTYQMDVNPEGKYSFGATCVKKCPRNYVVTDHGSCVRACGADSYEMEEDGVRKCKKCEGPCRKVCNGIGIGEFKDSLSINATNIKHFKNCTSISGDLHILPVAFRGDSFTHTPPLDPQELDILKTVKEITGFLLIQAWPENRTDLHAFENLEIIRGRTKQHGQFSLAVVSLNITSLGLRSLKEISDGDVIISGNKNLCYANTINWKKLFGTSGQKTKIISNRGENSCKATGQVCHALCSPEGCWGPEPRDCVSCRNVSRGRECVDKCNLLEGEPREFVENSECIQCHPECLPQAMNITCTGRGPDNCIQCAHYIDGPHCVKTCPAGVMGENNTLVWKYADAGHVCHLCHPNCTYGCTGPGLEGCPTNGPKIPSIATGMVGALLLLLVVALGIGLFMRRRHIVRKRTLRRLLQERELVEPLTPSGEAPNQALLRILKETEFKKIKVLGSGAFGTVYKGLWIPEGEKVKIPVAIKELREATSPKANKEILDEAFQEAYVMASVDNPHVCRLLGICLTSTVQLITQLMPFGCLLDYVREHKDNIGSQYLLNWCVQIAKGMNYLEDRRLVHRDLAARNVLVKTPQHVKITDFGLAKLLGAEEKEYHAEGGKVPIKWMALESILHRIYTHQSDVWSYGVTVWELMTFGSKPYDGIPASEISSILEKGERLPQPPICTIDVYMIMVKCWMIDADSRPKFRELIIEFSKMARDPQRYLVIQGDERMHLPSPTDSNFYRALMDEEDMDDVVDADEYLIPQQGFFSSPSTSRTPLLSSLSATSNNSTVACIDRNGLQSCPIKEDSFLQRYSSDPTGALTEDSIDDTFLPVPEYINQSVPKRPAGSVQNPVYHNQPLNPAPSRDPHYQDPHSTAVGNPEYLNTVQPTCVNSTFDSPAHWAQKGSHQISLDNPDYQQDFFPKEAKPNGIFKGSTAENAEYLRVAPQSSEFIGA
T2 sequence (P00533 25-1210): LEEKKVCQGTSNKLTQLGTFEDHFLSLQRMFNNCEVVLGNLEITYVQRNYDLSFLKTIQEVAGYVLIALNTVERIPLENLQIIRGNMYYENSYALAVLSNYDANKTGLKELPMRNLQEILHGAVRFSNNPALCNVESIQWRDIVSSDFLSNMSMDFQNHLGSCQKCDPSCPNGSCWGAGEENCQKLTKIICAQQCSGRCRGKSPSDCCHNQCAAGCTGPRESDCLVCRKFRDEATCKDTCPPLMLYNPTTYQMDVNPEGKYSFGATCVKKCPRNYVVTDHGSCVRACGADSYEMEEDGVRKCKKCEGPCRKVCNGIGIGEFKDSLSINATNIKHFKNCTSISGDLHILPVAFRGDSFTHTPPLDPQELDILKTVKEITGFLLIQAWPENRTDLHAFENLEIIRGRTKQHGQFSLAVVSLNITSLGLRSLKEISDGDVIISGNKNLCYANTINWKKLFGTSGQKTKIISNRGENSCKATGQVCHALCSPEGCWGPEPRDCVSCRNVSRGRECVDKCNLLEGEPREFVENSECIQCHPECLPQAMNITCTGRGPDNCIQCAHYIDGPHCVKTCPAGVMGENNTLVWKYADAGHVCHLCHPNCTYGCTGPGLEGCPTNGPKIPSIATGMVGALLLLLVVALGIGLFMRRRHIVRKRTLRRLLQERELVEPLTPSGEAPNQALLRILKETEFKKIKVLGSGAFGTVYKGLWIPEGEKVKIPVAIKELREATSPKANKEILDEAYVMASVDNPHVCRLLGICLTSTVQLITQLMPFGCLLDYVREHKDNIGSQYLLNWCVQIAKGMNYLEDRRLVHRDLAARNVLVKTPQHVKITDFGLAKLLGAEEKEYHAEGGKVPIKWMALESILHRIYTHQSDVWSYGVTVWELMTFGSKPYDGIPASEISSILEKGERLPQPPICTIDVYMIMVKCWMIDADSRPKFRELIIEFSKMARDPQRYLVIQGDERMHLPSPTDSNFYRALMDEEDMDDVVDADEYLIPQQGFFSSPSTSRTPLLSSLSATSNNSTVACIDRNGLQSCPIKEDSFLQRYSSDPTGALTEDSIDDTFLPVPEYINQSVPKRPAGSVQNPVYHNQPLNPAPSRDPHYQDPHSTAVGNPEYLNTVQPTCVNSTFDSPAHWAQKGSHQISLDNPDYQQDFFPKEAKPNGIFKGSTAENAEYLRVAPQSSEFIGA
T3 sequence (P00533 with tags, fused parts or gaps INS770SVD): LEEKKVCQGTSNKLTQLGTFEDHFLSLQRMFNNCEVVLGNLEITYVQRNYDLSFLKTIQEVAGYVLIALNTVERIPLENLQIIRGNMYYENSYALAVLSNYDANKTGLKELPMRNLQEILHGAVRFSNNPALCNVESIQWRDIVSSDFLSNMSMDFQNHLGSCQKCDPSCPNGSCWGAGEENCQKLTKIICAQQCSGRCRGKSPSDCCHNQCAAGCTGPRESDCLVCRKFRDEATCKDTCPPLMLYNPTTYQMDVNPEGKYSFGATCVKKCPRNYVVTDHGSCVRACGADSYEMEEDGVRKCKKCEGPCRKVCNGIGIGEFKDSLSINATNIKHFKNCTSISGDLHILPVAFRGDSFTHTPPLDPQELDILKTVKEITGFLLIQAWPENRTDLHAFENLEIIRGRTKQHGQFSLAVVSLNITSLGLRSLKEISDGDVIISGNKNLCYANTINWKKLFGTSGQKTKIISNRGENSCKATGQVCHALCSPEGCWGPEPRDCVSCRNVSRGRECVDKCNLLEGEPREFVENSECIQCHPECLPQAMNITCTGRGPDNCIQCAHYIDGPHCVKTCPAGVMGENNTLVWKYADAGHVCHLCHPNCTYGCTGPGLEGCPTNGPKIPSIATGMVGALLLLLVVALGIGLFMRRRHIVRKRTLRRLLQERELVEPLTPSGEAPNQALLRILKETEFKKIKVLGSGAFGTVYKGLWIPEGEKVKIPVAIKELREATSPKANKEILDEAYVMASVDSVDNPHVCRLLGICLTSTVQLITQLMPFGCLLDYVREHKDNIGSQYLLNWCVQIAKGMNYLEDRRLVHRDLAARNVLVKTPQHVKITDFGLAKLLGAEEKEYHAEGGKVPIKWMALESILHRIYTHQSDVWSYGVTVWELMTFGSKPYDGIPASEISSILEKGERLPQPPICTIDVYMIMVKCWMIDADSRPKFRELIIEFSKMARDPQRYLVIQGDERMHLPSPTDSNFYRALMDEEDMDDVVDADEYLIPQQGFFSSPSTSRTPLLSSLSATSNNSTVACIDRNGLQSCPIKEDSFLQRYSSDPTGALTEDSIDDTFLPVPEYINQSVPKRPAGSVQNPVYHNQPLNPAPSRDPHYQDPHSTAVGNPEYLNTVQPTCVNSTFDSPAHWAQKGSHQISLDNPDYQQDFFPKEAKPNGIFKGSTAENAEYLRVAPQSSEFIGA

SMILES	IC50 [1] [µM]	IC50 (EGFR WT (Ba/F3 cells)) [µM]	IC50 [2] [µM]	IC50 [3] [µM]	IC50 [4] [µM]
COc1c(Cl)cccc1Nc1c(-c2ccnc(N)n2)[nH]c2c1C(=O)N[C@@H](C)C2 [187a]	0.1 to 1	> 1	0.1 to 1	< 0.1	0.1 to 1
COc1c(Cl)cccc1Nc1c(-c2ccnc(N)n2)[nH]c2c1C(=O)N[C@H](C)C2 [187b]	0.1 to 1	0.1 to 1	< 0.1	< 0.1	< 0.1
COc1c(Cl)cccc1Nc1c(-c2ccnc(N)c2F)[nH]c2c1C(=O)NCC2 [Compound 686, 2-(2-amino-3-fluoropyridin-4-yl)-3-[(3-chloro-2-methoxyphenyl)amino]-1H,5H,6H,7H-pyrrolo[3,2-c]pyridin-4-one; trifluoroacetic acid]	0.1 to 1	0.1 to 1	< 0.1	< 0.1	< 0.1
COc1c(Cl)cccc1Nc1c(-c2nc(N)ncc2C#N)[nH]c2c1C(=O)NCC2 [Compound 693, 2-amino-4-[3-[(3-chloro-2-methoxyphenyl)amino]-4-oxo-1H,5H,6H,7H-pyrrolo[3,2-c]pyridin-2-yl]pyrimidine-5-carbonitrile]	> 1	> 1	> 1	> 1	> 1
COc1c(F)cccc1Nc1c(-c2ccnc3ccc(NC4(C)CC4)nc23)[nH]c2c1C(=O)NCC2 [Compound 695, 3-[(3-fluoro-2-methoxyphenyl)amino]-2-[6-[(1-methylcyclopropyl)amino]-1,5-naphthyridin-4-yl]-1H,5H,6H,7H-pyrrolo[3,2-c]pyridin-4-one; formic acid]	< 0.1	< 0.1	< 0.1	< 0.1	< 0.1
CCOc1c(F)cccc1Nc1c(-c2ccnc(N)n2)[nH]c2c1C(=O)NCC2 [Compound 699, 2-(2-aminopyrimidin-4-yl)-3-[(2-ethoxy-3-fluorophenyl)amino]-1H,5H,6H,7H-pyrrolo[3,2-c]pyridin-4-one; trifluoroacetic acid]	> 1	> 1	> 1	0.1 to 1	> 1
C#Cc1cccc(Nc2c(-c3ccnc(N)n3)[nH]c3c2C(=O)NCC3)c1OC [Compound 703, 2-(2-aminopyrimidin-4-yl)-3-[(3-ethynyl-2-methoxyphenyl)amino]-1H,5H,6H,7H-pyrrolo[3,2-c]pyridin-4-one]	> 1	> 1	> 1	0.1 to 1	> 1
CC#Cc1cccc(Nc2c(-c3ccnc(N)n3)[nH]c3c2C(=O)NCC3)c1OC [Compound 704, 2-(2-aminopyrimidin-4-yl)-3-[[2-methoxy-3-(prop-1-yn-1-yl)phenyl]amino]-1H,5H,6H,7H-pyrrolo[3,2-c]pyridin-4-one]	> 1	> 1	> 1	> 1	> 1
COc1cccc(Nc2c(-c3ccnc(N)n3)[nH]c3c2C(=O)NCC3)c1C [Compound 705, 2-(2-aminopyrimidin-4-yl)-3-[(3-methoxy-2-methylphenyl)amino]-1H,5H,6H,7H-pyrrolo[3,2-c]pyridin-4-one]	> 1	> 1	> 1	> 1	> 1
COc1c(Cl)cccc1Nc1c(-c2ccnc(NC3CC(F)(F)C3)n2)[nH]c2c1C(=O)NCC2 [Compound 712, 3-[(3-chloro-2-methoxyphenyl)amino]-2-[2-[(3,3-difluorocyclobutyl)amino]pyrimidin-4-yl]-1H,5H,6H,7H-pyrrolo[3,2-c] pyridin-4-one]	> 1	> 1	> 1	0.1 to 1	> 1
CSc1c(Cl)cccc1Nc1c(-c2ccnc(N)n2)[nH]c2c1C(=O)NCC2 [Compound 715, 2-(2-aminopyrimidin-4-yl)-3-[[3-chloro-2-(methylsulfanyl)phenyl]amino]-1H,5H,6H,7H-pyrrolo[3,2-c]pyridin-4-one]	0.1 to 1	> 1	0.1 to 1	< 0.1	0.1 to 1
Cc1ccc(F)cc1Nc1c(-c2ccnc(N)n2)[nH]c2c1C(=O)NCC2 [compound 196]	0.1 to 1	> 1	> 1	0.1 to 1	> 1
Cc1cc(F)ccc1Nc1c(-c2ccnc(N)n2)[nH]c2c1C(=O)NCC2 [compound 197]	> 1	> 1	> 1	> 1	> 1
Cc1cccc(F)c1Nc1c(-c2ccnc(N)n2)[nH]c2c1C(=O)NCC2 [compound 198]	> 1	> 1	> 1	> 1	> 1
N#Cc1c(F)cccc1Nc1c(-c2ccnc(N)n2)[nH]c2c1C(=O)NCC2 [compound 200]	> 1	> 1	> 1	0.1 to 1	> 1
Cc1c(C#N)cccc1Nc1c(-c2ccnc(N)n2)[nH]c2c1C(=O)NCC2 [compound 201]	> 1	> 1	> 1	> 1	> 1
Nc1nccc(-c2[nH]c3c(c2Nc2ccc(F)c(F)c2)C(=O)NCC3)n1 [compound 203]	0.1 to 1	> 1	> 1	> 1	> 1
Nc1nccc(-c2[nH]c3c(c2Nc2cc(F)cc(F)c2)C(=O)NCC3)n1 [compound 204]	0.1 to 1	0.1 to 1	0.1 to 1	0.1 to 1	0.1 to 1
COc1c(Cl)cccc1Nc1c(-c2ccnc(NCc3ccccc3)n2)[nH]c2c1C(=O)NCC2 [compound 209]	> 1	> 1	0.1 to 1	0.1 to 1	0.1 to 1
COc1c(F)cccc1Nc1c(-c2ccnc(N)c2)[nH]c2c1C(=O)NCC2 [compound 242]	> 1	> 1	> 1	0.1 to 1	> 1
COc1c(F)cccc1Nc1c(-c2ccncn2)[nH]c2c1C(=O)NCC2 [compound 244]	> 1	> 1	> 1	0.1 to 1	> 1
COc1c(F)cccc1Nc1c(-c2nnc3cc(C)ccn23)[nH]c2c1C(=O)NCC2 [compound 246]	> 1	> 1	> 1	> 1	> 1
COc1c(F)cccc1Nc1c(-c2ccnc(C)c2)[nH]c2c1C(=O)NCC2 [compound 261]	> 1	> 1	> 1	0.1 to 1	> 1
CNc1cc(-c2[nH]c3c(c2Nc2cccc(Cl)c2OC)C(=O)NCC3)ncn1 [compound 284]	> 1	> 1	> 1	> 1	> 1
